According to publication PMC12538393 (RSC Advances, 2025):

Tests used:
[1] = target: ACE (Homo sapiens, UniProt P12821); assay: In vitro ACE inhibitory activity, DOJINDO ACE Kit-WST reagent box; format: biochemical
[2] = tested on: hypertensive animals; conditions: snake venom peptide; cited from earlier work

Chain of ACE (P12821 30-1306, species assumed): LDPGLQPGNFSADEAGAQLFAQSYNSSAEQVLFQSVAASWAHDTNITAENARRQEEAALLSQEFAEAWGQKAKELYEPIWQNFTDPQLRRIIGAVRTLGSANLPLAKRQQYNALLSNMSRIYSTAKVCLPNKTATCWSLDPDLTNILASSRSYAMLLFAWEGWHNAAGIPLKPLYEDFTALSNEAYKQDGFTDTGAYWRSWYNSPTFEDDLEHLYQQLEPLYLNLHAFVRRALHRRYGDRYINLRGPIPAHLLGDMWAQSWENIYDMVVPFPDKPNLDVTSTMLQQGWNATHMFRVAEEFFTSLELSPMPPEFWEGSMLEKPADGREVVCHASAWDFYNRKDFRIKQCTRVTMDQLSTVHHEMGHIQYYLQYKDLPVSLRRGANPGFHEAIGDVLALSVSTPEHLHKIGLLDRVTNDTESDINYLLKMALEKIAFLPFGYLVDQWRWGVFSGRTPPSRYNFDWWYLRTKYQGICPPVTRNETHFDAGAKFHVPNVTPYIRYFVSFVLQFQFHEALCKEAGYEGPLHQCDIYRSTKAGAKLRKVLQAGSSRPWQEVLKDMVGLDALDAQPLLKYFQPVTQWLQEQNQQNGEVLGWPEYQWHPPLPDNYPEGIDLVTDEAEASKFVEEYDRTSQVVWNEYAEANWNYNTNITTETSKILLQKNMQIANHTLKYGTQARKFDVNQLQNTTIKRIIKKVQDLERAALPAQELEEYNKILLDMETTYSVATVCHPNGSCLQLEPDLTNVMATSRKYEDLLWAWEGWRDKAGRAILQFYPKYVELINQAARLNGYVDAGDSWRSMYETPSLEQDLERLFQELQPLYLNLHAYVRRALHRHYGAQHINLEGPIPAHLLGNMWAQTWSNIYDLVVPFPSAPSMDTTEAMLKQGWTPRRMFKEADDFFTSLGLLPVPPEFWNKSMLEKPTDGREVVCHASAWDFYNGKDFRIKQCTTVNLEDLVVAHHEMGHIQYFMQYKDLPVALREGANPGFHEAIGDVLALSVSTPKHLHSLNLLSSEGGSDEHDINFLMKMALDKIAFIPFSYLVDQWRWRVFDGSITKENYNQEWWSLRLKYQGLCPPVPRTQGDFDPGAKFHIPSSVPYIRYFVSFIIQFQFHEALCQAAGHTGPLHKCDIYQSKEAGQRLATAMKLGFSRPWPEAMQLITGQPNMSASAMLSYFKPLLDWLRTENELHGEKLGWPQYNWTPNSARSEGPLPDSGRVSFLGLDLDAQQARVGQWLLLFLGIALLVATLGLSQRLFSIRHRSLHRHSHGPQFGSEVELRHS

H-Asp-Arg-Tyr-OH [D2]
ACE-inhibitory activity, comparison in words [1]: potencies are still higher than that of compound 144

H-Leu-Arg-Asn-OH [D1]
ACE-inhibitory activity, comparison in words [1]: potencies are still higher than that of compound 144

Pyr-Trp-Pro-Arg-Pro-Gln-Ile-Pro-Pro
antihypertensive effect for hypertensive animals [2]: best antihypertensive effect for hypertensive animals
